Reference: ChEMBL document CHEMBL2429761, “Discovery of ML314, a Brain Penetrant Non-Peptidic β-Arrestin Biased Agonist of the Neurotensin NTR1 Receptor” (ACS Med Chem Lett, 2013)

What was measured:
[1] = molecular target: Neurotensin receptor type 2 (Homo sapiens, UniProt O95665); assay: Agonist activity at NTR2 (unknown origin) expressed in human U2OS cells coexpressing beta-arrestin by GFP reporter gene assay; assay type: cell-based
[2] = molecular target: G-protein coupled receptor 35 (Homo sapiens, UniProt Q9HC97); assay: Agonist activity at GPR35 (unknown origin) expressed in human U2OS cells coexpressing beta-arrestin by GFP reporter gene assay; assay type: cell-based
Sequence of G-protein coupled receptor 35 (Q9HC97 whole entry): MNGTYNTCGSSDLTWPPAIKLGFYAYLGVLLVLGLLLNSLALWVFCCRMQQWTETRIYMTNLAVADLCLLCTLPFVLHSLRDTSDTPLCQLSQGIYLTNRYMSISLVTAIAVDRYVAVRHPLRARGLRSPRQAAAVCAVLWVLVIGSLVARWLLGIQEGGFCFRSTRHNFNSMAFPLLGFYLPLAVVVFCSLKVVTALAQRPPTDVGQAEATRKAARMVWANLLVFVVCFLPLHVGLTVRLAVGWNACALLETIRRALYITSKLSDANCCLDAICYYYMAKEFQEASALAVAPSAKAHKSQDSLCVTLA

[3] = molecular target: T1, Neurotensin receptor type 1 (Homo sapiens, UniProt P30989); assay: Agonist activity at NTR1 (unknown origin) expressed in human U2OS cells coexpressing beta-arrestin by GFP reporter gene assay; assay type: cell-based
T1 sequence (P30989 whole entry): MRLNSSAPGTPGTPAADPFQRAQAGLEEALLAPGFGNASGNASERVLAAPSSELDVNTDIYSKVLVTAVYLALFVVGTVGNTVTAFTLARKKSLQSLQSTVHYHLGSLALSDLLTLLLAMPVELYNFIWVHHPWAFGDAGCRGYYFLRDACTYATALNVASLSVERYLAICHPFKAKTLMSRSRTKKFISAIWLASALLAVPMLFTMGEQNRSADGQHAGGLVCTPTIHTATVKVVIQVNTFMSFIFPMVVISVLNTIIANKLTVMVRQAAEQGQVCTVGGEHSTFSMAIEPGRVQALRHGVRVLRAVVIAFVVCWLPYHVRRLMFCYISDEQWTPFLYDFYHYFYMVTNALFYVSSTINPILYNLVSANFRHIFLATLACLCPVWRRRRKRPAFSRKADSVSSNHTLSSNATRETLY

[4] = molecular target: T1, Neurotensin receptor type 1
Description: Displacement of [125I]-neurotensin from NTR1 in HUVEC after 1 hr by gamma counting analysis

[5] = molecular target: T1, Neurotensin receptor type 1; assay: Antagonist activity at NTR1 (unknown origin) expressed in human U2OS cells coexpressing beta-arrestin assessed as inhibition of ML314-induced effect by GFP reporter gene assay
[6] = molecular target: T1, Neurotensin receptor type 1; assay: Agonist activity at NTR1 (unknown origin) expressed in CHO cells assessed as stimulation of calcium flux relative to neurotensin (8 to 13); assay type: functional, cell-based
[7] = molecular target: T1, Neurotensin receptor type 1; assay: Agonist activity at NTR1 (unknown origin) expressed in CHOK1 cells by beta-arrestin assay; assay type: cell-based, CHO-K1

Sequence of Neurotensin receptor type 2 (O95665 whole entry): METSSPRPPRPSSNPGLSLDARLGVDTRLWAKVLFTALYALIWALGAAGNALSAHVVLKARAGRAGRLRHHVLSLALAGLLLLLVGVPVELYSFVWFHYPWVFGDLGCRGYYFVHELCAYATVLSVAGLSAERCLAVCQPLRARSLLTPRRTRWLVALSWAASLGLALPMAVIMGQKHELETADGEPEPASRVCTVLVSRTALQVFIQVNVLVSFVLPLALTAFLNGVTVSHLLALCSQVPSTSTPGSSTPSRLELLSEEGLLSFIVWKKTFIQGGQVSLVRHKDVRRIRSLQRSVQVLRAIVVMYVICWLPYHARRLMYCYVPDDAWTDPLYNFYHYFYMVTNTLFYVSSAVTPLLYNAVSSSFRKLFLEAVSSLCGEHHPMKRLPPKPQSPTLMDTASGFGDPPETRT

EC50 [1] [µM] | EC50 [2] [µM] | EC50 [3] [µM] | IC50 [4] [µM] | IC50 [5] [µM] | SMILES | Emax [6] [%] | EC50 [7] [µM]
> 80 | > 40 | > 80 | – | – | CCOc1cc2c(N3CCN(c4ccccc4)CC3)nc(-c3ccccc3)nc2cc1OC | – | –
> 80 | > 40 | 12 | – | – | COc1cc2nc(C3CCC3)nc(N3CCN(c4ccccc4)CC3)c2cc1OC | – | –
– | – | – | 0.00024 | 0.0501 | COc1cccc(OC)c1-c1cc(C(=O)NC2(C(=O)O)C3CC4CC(C3)CC2C4)nn1-c1ccc(C(=O)N(C)CCCN(C)C)cc1C(C)C (stereo unspecified) | – | –
> 80 | > 40 | – | – | – | COc1cc2nc(C3CCC3)nc(N3CCN(c4ccccc4OC)CC3)c2cc1OC | – | –
> 80 | > 40 | 14 | – | – | COc1cc2nc(Cc3ccccc3)nc(N3CCN(c4ccccc4OC)CC3)c2cc1OC | – | –
> 80 | > 40 | 12 | – | – | COc1cc2nc(C3CCC3)nc(N3CCN(c4ccccc4Cl)CC3)c2cc1OC | – | –
> 80 | > 40 | 17 | – | – | CCCc1nc(N2CCN(c3ccccc3OC)CC2)c2cc(OC)c(OC)cc2n1 | – | –
> 80 | > 40 | – | – | – | COc1cc2nc(CCN3CCN(c4ccccc4OC)CC3)nc(N3CCN(c4ccccc4OC)CC3)c2cc1OC | – | –
> 80 | > 40 | – | – | – | CCOc1ccccc1N1CCN(c2nc(C3CC3)nc3cc(OC)c(OC)cc23)CC1 | – | –
> 80 | > 40 | > 80 | – | – | COc1cc2nc(-c3ccccc3)nc(N3CCN(c4ccccc4Cl)CC3)c2cc1OC | – | –
> 80 | > 40 | – | – | – | COc1ccc2c(N3CCN(c4ccccc4OC)CC3)nc(C3CCC3)nc2c1 | – | –
> 80 | > 40 | 18 | – | – | COc1cc2nc(C3CCC3)nc(N3CCN(c4ccccc4F)CC3)c2cc1OC | – | –
> 80 | > 40 | > 80 | – | – | COc1cc2ncnc(N3CCN(c4ccccc4OC)CC3)c2cc1OC | – | –
> 80 | > 40 | 75 | – | – | CCOc1cc2c(N3CCN(c4ccccc4[N+](=O)[O-])CC3)nc(-c3ccccc3)nc2cc1OC | – | –
> 80 | > 40 | > 80 | – | – | COc1cc2nc(C3CC3)nc(N3CCN(S(=O)(=O)c4ccccc4)CC3)c2cc1OC | – | –
> 80 | > 40 | > 80 | – | – | COc1cc2nc(-c3ccccc3)nc(N3CCN(c4ccccc4)CC3)c2cc1OC | – | –
> 80 | > 40 | – | – | – | COc1cc2nc(-c3ccccc3)nc(N3CCN(c4ccc(F)cc4)CC3)c2cc1OC | – | –
> 80 | > 40 | – | – | – | COc1ccc2nc(C3CCC3)nc(N3CCN(c4ccccc4OC)CC3)c2c1 | – | –
> 80 | > 40 | > 80 | – | – | COc1cc2nc(-c3ccccc3)nc(N3CCN(c4ccccc4F)CC3)c2cc1OC | – | –
> 80 | > 40 | – | – | – | COc1ccc2nc(C3CC3)nc(N3CCN(c4ccccc4OC)CC3)c2c1 | – | –

EC50 [1] [µM] | EC50 [2] [µM] | EC50 [3] [µM] | IC50 [4] [µM] | IC50 [5] [µM] | SMILES | Emax [6] [%] | EC50 [7] [µM]
> 80 | > 40 | – | – | – | COc1cc2nc(C3CCCC3)nc(N3CCN(c4ccccc4OC)CC3)c2cc1OC | – | –
> 80 | > 40 | > 80 | – | – | COc1cc2nc(C3CC3)nc(N3CCNCC3)c2cc1OC | – | –
> 80 | > 40 | > 80 | – | – | CCOc1cc2c(N3CCN(c4ccccc4OC)CC3)nc(-c3ccccc3)nc2cc1OC | – | –
> 80 | > 40 | 14 | – | – | COc1cc2nc(CC3CC3)nc(N3CCN(c4ccccc4OC)CC3)c2cc1OC | – | –
> 80 | > 40 | > 80 | – | – | COc1cc2nc(C)nc(N3CCN(c4ccccc4OC)CC3)c2cc1OC | – | –
> 80 | > 40 | – | – | – | COc1cc2nc(CC(C)C)nc(N3CCN(c4ccccc4OC)CC3)c2cc1OC | – | –
> 80 | > 40 | 23 | – | – | COc1ccccc1N1CCN(c2nc(C3CCC3)nc3ccccc23)CC1 | – | –
> 80 | > 40 | > 80 | – | – | COc1cc2nc(CCN(C)C)nc(N3CCN(c4ccccc4OC)CC3)c2cc1OC | – | –
> 80 | > 40 | – | – | – | COc1cc2nc(C3CCC3)nc(N3CCN(c4ccccc4C)CC3)c2cc1OC | – | –
> 80 | > 40 | – | – | – | COc1ccccc1CN1CCN(c2nc(C3CC3)nc3cc(OC)c(OC)cc23)CC1 | – | –
> 80 | > 40 | – | – | – | COc1cc2nc(C3CC3)nc(N3CCN(c4ccccc4Cl)CC3)c2cc1OC | – | –
> 80 | > 40 | 8 | – | – | COc1cc2nc(C(C)C)nc(N3CCN(c4ccccc4OC)CC3)c2cc1OC | – | –
> 80 | > 40 | – | – | – | C=Cc1nc(N2CCN(c3ccccc3OC)CC2)c2cc(OC)c(OC)cc2n1 | – | –
> 80 | > 40 | – | – | – | COc1cc2nc(C3CC3)nc(N3CCN(Cc4ccc(C)cc4)CC3)c2cc1OC | – | –
> 80 | > 40 | – | – | – | COc1cc2nc(C3CC3)nc(N3CCN(C(=O)c4ccccc4)CC3)c2cc1OC | – | –
> 80 | > 40 | 26 | – | – | COc1cc2nc(C3CCC3)nc(N3CCN(c4ccccn4)CC3)c2cc1OC | – | –
> 80 | > 40 | > 80 | – | – | CCOc1cc2c(N3CCN(c4ccccc4F)CC3)nc(-c3ccccc3)nc2cc1OC | – | –
> 80 | > 40 | – | – | – | COc1ccccc1N1CCN(c2nc(C3CCC3)nc3cc4c(cc23)OCO4)CC1 | – | –
> 80 | > 40 | – | – | – | COc1cc2nc(-c3ccccc3)nc(N3CCN(c4ccccc4OC)CC3)c2cc1OC | – | –
> 80 | > 40 | – | – | – | COc1cc2nc(C3CC3)nc(N3CCN(C(=O)c4ccccc4OC)CC3)c2cc1OC | – | –

SMILES | EC50 [1] [µM] | EC50 [2] [µM] | EC50 [3] [µM] | IC50 [4] [µM] | IC50 [5] [µM] | Emax [6] [%] | EC50 [7] [µM]
COc1cccc(OC)c1-c1cc(C(=O)N[C@@H](CC(C)C)C(=O)O)nn1-c1ccnc2cc(Cl)ccc12 | – | – | 0.75 | – | – | 63 | > 33
CCc1nc(N2CCN(c3ccccc3OC)CC2)c2cc(OC)c(OC)cc2n1 | > 80 | > 40 | – | – | – | – | –
